Results as given in ChEMBL document CHEMBL1201862, “PubChem BioAssay data set” (2004).
Calls of active or inactive are those of the source.

Assays:
[1] = test system: Streptococcus sp. 'group A'; test: growth inhibition of control SK(-) GAS strain, dose response, counter-screen for streptokinase expression inhibitor project, luminescence, kanamycin, BacTiterGlo, confirmation (AID 1900); format: functional, organism-based
[2] = molecular target: T1, Sentrin-specific protease 6 (Homo sapiens, UniProt Q9GZR1); format: functional;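 also: Luminescence-based dose-response confirmatory assay of SENP6 inhibition, following up an ultra-high-throughput screen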
T1 sequence (Q9GZR1 whole entry): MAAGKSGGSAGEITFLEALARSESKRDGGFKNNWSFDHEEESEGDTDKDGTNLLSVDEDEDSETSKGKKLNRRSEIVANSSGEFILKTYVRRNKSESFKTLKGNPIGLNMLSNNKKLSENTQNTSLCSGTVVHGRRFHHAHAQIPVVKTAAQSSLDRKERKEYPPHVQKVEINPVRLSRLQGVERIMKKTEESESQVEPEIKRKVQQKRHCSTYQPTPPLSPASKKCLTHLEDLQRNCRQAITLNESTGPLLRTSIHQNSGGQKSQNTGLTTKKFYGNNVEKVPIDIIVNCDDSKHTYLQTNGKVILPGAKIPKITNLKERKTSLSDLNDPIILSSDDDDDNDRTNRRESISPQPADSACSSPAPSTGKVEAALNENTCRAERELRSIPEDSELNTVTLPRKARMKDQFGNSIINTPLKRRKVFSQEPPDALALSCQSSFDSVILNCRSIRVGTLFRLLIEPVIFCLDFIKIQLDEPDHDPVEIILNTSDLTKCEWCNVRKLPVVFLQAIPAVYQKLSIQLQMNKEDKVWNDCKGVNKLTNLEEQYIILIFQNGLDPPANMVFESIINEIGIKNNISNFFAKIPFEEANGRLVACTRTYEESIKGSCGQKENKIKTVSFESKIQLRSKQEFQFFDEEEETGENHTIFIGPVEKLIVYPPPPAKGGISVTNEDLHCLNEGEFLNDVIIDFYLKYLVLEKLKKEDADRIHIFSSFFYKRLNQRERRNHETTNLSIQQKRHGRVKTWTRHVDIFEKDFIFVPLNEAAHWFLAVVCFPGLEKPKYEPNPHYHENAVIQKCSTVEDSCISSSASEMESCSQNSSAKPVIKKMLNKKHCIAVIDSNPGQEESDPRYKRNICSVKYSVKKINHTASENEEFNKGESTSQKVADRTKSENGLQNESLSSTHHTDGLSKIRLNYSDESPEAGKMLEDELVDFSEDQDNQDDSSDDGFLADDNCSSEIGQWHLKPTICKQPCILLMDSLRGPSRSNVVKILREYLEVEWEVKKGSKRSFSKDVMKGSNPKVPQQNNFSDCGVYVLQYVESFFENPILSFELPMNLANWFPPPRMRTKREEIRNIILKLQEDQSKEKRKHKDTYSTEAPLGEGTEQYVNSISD

Streptococcus = test: Group A Streptococcus viability loss, dose response, counter-screen for streptokinase expression inhibitor project, luminescence, BacTiterGlo (AID 1915); format: functional, organism-based;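 also: potency for reduction of bacterial viability or growth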
Caspase-3 = molecular target: T2, Caspase-3 (Homo sapiens, UniProt P42574); format: functional;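 also: Dose-response selectivity test against caspase-3 for candidate inhibitors of sentrin-specific proteases (SENPs)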
T2 sequence (P42574 whole entry): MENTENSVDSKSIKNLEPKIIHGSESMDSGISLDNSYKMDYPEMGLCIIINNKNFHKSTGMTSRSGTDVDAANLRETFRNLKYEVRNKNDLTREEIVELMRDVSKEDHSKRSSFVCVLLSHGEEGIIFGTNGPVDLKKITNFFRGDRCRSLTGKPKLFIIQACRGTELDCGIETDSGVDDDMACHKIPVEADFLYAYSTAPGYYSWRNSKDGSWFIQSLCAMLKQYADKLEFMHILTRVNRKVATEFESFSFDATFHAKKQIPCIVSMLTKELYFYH

Streptokinase A = molecular target: T3, Streptokinase A (Streptococcus pyogenes serotype M1, UniProt P10520); test: S. pyogenes streptokinase expression inhibitors, potency, dose response, plasminogen activation absorbance, OD405 (AID 1914); format: functional, Streptococcus pyogenes M1 GAS;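 also: secreted streptokinase activity via plasminogen activation per viability signal from cell pellet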
T3 sequence (P10520 whole entry): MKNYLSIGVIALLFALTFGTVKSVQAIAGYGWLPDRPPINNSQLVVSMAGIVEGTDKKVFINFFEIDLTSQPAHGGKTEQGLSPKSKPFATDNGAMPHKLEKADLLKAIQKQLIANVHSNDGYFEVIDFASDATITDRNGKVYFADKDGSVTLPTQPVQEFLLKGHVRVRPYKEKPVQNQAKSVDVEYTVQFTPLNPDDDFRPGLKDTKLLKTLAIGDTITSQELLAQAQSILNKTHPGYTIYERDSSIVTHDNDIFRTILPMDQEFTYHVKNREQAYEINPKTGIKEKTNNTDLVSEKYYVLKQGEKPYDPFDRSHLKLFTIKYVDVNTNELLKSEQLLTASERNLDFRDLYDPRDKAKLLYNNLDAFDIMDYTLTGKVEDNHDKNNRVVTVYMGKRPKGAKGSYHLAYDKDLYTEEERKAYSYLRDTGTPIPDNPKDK

[3] = molecular target: T4, Sentrin-specific protease 7 (Homo sapiens, UniProt Q9BQF6); format: functional;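 also: Luminescence-based dose-response confirmation of ultra-high-throughput screening hits, measuring inhibition of SENP7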
T4 sequence (Q9BQF6 whole entry): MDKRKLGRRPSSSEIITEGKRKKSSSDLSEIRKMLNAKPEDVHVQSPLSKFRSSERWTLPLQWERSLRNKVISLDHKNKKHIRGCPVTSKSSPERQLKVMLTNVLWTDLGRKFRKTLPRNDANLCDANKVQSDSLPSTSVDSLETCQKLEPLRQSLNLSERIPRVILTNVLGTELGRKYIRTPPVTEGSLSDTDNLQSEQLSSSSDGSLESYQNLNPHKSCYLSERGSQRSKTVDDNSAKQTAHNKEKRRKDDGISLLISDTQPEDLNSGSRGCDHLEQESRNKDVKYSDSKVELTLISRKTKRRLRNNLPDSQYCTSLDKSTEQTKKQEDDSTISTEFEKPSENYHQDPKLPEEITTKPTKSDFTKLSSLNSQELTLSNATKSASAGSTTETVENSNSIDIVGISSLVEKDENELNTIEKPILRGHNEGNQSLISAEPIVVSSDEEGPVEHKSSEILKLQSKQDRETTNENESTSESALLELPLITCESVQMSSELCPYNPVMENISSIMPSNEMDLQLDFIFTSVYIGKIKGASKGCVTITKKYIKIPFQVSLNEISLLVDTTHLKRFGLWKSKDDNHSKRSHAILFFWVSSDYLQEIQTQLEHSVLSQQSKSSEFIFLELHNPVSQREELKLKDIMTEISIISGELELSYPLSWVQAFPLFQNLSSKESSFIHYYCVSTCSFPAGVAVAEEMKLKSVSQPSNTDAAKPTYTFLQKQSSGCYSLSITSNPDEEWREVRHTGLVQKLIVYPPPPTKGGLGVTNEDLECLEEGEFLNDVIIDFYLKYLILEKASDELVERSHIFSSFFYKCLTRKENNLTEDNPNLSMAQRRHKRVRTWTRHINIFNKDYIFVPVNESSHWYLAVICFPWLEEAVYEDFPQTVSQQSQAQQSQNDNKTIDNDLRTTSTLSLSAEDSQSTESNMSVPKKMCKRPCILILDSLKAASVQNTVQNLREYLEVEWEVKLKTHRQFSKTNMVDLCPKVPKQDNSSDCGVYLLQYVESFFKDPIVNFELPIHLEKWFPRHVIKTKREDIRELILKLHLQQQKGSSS

[4] = molecular target: T5, Oxysterols receptor LXR-beta (Homo sapiens, UniProt P55055); format: functional, cell-based;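 also: agonist activity at LXR measured by a cell-based luminescence readout across a dose range, run as a counterscreen for daf-12 agonists; HEK293 cells with Gal4-LXR fusion and GAL4-driven luciferase reporter; potency for activation of Gal4-LXR reporter so compounds are agonists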
T5 sequence (P55055 whole entry): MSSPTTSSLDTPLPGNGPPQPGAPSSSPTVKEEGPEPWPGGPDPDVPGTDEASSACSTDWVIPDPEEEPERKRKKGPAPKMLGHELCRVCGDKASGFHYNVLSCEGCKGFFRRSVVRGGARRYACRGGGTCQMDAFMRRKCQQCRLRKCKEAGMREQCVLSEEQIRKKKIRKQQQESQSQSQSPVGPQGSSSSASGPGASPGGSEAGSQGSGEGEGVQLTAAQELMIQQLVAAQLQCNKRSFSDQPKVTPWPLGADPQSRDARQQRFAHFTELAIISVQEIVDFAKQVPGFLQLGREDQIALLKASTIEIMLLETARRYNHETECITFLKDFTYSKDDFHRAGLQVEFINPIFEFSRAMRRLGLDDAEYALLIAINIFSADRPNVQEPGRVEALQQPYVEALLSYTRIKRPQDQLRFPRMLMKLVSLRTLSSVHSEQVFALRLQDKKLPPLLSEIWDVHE

[5] = molecular target: T6, Sentrin-specific protease 8 (Homo sapiens, UniProt Q96LD8); format: functional;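 also: luminescence read-out of SENP8 inhibition, dose-response confirmation following an ultra-high-throughput screen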
T6 sequence (Q96LD8 whole entry): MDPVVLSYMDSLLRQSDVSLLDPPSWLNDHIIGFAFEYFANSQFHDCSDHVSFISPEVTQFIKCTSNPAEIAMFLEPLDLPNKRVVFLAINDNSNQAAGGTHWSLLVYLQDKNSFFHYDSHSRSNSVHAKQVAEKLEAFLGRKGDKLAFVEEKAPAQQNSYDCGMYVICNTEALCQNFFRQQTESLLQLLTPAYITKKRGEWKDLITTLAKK

[6] = HepG2 cell cytotoxicity, dose response, cytotoxicity control for Shn3 inhibitor project, CellTiter-Glo, cherry-picked (AID 624134); format: functional, cell-based
[7] = Shn3 3'UTR reporter inhibitors, dose response, cell-based, Clone20 osteoblasts, firefly luciferase, cherry-picked (AID 624132); format: functional;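 also: firefly luciferase luminescence from reporter carrying the Shn3 3'UTR in osteoblasts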
[8] = control 3'UTR Renilla luciferase suppression, dose response, counter-screen for Shn3 inhibitor project, cell-based, Clone20-Shn3RL, cherry-picked (AID 624133); format: functional
[9] = molecular target: COUP transcription factor 2 (Homo sapiens, UniProt P24468); test: Luminescence-based cell-based high throughput dose response assay to identify inhibitors of COUP-TFII (NR2F2).; format: functional;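 also: HEK293 cells transiently cotransfected with COUP-TFII expression vector and reporter; luciferase reporter luminescence driven by COUP-TFII from the pX2-168 reporter plasmid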
Chain of COUP transcription factor 2 (P24468 whole entry): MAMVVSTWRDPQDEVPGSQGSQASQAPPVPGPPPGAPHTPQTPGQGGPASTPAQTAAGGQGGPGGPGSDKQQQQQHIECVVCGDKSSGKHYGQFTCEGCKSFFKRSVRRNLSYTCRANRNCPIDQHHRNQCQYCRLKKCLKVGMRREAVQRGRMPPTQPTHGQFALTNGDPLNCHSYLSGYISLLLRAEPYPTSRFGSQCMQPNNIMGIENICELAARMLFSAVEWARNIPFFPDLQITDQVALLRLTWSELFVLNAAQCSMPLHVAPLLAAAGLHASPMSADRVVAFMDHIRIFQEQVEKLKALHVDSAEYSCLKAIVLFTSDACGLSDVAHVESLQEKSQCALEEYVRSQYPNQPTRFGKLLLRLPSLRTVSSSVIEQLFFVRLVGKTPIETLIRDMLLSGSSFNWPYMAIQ

[10] = HEK293 Cytotoxicity Assay Measured in Cell-Based System Using Plate Reader - 7071-01_Inhibitor_Dose_CherryPick_Activity_Set2.; format: functional
HeLa = test: HeLa cell cytotoxicity, dose response, cytotoxicity control, ATP luminescence, cherry-pick samples (AID 687004); format: functional, cell-based; conditions: Homo sapiens
HEK293 = test: HEK293T cell cytotoxicity, dose response, cytotoxicity control, ATP luminescence, cherry-pick samples (AID 687005); format: functional, cell-based; conditions: Homo sapiens;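 also: cells exposed to compound for 48 hours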
[11] = molecular target: T7, Heat shock factor protein 1 (Mus musculus, UniProt P38532); test: inhibition of MG132-induced HSE-luciferase signal, confirmation, cell-based, NIH3T3, luminescence, dose retest (AID 2382); format: functional;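 also: NIH3T3 fibroblasts with HSF1-driven luciferase reporter stressed by proteasome inhibitor MG132; luminescence from HSF1-driven luciferase expression after 8 hours of MG132 stress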
T7 sequence (P38532 whole entry): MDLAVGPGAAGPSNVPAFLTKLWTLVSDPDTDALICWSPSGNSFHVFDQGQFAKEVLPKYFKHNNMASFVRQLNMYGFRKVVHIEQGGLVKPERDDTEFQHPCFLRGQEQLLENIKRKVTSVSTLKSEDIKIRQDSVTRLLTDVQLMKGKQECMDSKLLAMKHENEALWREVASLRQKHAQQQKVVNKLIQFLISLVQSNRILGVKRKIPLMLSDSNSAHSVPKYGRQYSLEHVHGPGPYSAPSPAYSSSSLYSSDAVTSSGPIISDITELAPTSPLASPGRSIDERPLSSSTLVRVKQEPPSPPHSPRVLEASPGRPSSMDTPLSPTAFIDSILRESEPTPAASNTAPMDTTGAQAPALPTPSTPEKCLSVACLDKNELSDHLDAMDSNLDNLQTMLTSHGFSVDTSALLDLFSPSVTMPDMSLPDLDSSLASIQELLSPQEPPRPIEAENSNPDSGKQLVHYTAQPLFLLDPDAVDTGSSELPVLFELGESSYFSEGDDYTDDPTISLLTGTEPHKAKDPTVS

[12] = Luminescence-based counterscreen assay for KLF5 inhibitors: dose response cell-based high throughput screening assay to identify cytotoxic compounds using the IEC-6 intestinal epithelial cell line. [Related pubchem assays: 1700 (Primary screen.), 1834 (Confirmation screen.), 1858 (Summary AID.), 1905 (Counterscreen.)]; format: functional
[13] = molecular target: Luciferin 4-monooxygenase (Photinus pyralis, UniProt P08659); test: firefly luciferase enzyme inhibitors, dose response, biochemical, luminescence (AID 1891)
Chain of Luciferin 4-monooxygenase (P08659 whole entry): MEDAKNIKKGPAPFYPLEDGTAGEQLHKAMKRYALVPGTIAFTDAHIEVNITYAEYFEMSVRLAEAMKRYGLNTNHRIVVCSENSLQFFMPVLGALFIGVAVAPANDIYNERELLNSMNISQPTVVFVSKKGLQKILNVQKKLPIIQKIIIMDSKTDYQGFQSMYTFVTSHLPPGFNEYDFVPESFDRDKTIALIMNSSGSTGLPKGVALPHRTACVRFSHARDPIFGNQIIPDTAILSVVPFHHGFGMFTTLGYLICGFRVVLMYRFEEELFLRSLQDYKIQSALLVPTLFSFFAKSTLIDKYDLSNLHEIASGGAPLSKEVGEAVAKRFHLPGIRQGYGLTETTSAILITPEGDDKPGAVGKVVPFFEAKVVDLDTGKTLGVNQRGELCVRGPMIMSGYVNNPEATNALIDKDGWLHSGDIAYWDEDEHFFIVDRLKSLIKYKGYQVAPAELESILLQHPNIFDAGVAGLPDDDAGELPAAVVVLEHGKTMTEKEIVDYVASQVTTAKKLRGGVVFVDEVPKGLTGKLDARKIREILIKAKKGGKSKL

[14] = Luminescence Cell-Based Dose Confirmation HTS to Identify Inhibitors of Platelet Dense Granule Release. [Related pubchem assays: 1663 (Primary HTS), 1678 (Summary of Project)]; format: functional
[15] = non-specific cell cytotoxicity, dose response, cytotoxicity control for PAX8 inhibitor project, plate reader, dry powder samples (AID 743021); format: functional, cell-based
[16] = IGROV1 ovarian cancer cell cytotoxicity, dose response, PAX8 inhibitor project, plate reader, dry powder samples (AID 743043); format: functional, cell-based; conditions: IGROV-1
Paired box protein Pax-8 = Paired box protein Pax-8 (Homo sapiens, UniProt Q06710); test: inhibitors of PAX8-driven TPO luciferase reporter, dose response, RMG-I cells, cherry-pick (AID 687027); format: functional, cell-based;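 also: luciferase reporter driven by Pax8 target thyroperoxidase promoter measured by SteadyGlo luminescence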
Chain of Paired box protein Pax-8 (Q06710 whole entry): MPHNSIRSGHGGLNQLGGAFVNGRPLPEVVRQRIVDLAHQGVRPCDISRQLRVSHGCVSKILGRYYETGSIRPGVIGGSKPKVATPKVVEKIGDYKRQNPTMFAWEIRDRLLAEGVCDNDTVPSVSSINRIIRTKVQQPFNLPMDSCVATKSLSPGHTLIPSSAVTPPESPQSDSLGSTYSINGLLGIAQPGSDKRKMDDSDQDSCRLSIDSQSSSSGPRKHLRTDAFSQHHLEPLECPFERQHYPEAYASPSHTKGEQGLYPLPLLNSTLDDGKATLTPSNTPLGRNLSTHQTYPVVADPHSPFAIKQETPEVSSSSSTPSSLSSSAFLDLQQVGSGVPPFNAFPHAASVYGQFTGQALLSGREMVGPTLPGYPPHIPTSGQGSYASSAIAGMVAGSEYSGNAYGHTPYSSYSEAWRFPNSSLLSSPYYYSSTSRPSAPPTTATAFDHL

[17] = NIH:OVCAR-3 ovarian cancer cell cytotoxicity, dose response, PAX8 inhibitor project, plate reader, dry powder samples (AID 743044); format: functional, cell-based
[18] = cytotoxicity in OVCAR8 ovarian cancer cells, dose response, PAX8 project, cell-based, plate reader, dry powder samples (AID 743197); format: functional; conditions: OVCAR-8

Compound: O=c1c2cc(-c3ccccc3)sc2nc2n1CCC2
- EC50 [1]: 11.3 µM (active)
- IC50 [2]: 20.8 µM (active)
- EC50 (Streptococcus): > 150 µM (not active)
- IC50 (Caspase-3): 5.94 µM (active)
- EC50 (Streptokinase A): > 150 µM (not active)
- IC50 [3]: 6.17 µM (active)
- EC50 [4]: > 67.5 µM (inactive)
- IC50 [5]: 10.9 µM (active)

Compound: OC[C@@H]1CN(Cc2ccc(-c3ccccc3)cc2)C[C@H](n2cnc3c(NCc4ccc(F)cc4)ncnc32)O1
- AC50 [6]: 64.5 µM (active)
- AC50 [7]: 1.58 µM (active)
- AC50 [8]: 4.44 µM (active)
- IC50 [9]: 8.22 µM (active)

Compound: C[C@@H]1CN([C@H](C)CO)S(=O)(=O)c2ccc(C#Cc3ccc(F)cc3)cc2O[C@H]1CN(C)C(=O)NC1CCCC1
- AC50 [10]: 4.91 µM (active)
- AC50 (HeLa): 34.7 µM (active)
- AC50 (HEK293): 4.91 µM (active)

Compound: COc1cccc(S(=O)(=O)Nc2ccc3c(c2)[C@@H]2C[C@@H](CC(=O)NCc4cccc(F)c4)O[C@H](CO)[C@@H]2O3)c1
- AC50 [10]: 27.7 µM (active)
- AC50 (HEK293): 27.7 µM (active)

Compound: COc1ccc(C(=O)Nc2ccccc2C(=O)N/N=C/c2ccc(O)c(OC)c2)cc1
- EC50 [11]: < 0.16 µM (active)
- IC50 [12]: > 39.8 µM (not active)
- EC50 [13]: 0.149 µM (active)
- IC50 [9]: > 9.49 µM (active)
- EC50 [14]: 0.156 µM (active)

Compound: C[C@@H]1CCCCO[C@H](CN(C)Cc2ccc(C(F)(F)F)cc2)[C@@H](C)CN([C@@H](C)CO)C(=O)c2cc(NC(=O)c3ccccc3)ccc2O1
- AC50 [15]: 52.2 µM (active)
- AC50 [16]: 26.2 µM (active)
- AC50 (Paired box protein Pax-8): 6.57 µM (active)
- AC50 [17]: 10.8 µM (active)
- AC50 [18]: 21.5 µM (active)
